# Experimental data as given in paper PMC2192625 (The Journal of Experimental Medicine, 1996).
# Like-named read-outs stand apart in the source and are kept apart here. Residues, ends and D or L forms follow the SMILES beside them.
# Experiments:
# [1] = tested on: experimental allergic encephalomyelitis in HLA-DRA-IEα/HLA-DRB1*0401-IEβ Tg mice; type: in vivo, mouse
# [2] = biological target: HLA-DRB1*0401 molecules purified from Priess cells (Homo sapiens, UniProt P01903+P01911, A100K/A169T/F76Y/I96L/K127E/L162R/M171V/N62H/P40V/Q125Y/R42H/S133A/S149N/S66Y/V115G/V209L/W38E); assay: biochemical; type: binding
# [3] = biological target: HLA-DRA-IEα/HLA-DRB1*0401-IEβ chimeric molecules purified from transfected M12.C3 cells (Homo sapiens, UniProt P01903+P01911, A100K/A169T/F76Y/I96L/K127E/L162R/M171V/N62H/P40V/Q125Y/R42H/S133A/S149N/S66Y/V115G/V209L/W38E); assay: biochemical; type: binding, human/mouse chimeric
compound,measurement,setting,value
CC[C@H](C)[C@H](NC(=O)[C@H](CC(N)=O)NC(=O)[C@H](CCCCN)NC(=O)[C@H](Cc1ccccc1)NC(=O)[C@H](Cc1ccccc1)NC(=O)[C@H](Cc1c[nH]cn1)NC(=O)[C@@H](NC(=O)[C@@H](N)C(C)C)C(C)C)C(=O)N[C@H](C(=O)N[C@H](C(=O)N1CCC[C@H]1C(=O)N[C@@H](CCCNC(=N)N)C(=O)N[C@H](C(=O)N1CCC[C@H]1C(=O)N1CCC[C@H]1C(=O)N1CCC[C@H]1C(=O)N[C@@H](CO)C(=O)N[C@@H](CCC(N)=O)C(=O)NCC(=O)N[C@@H](CCCCN)C(=O)O)[C@@H](C)O)[C@@H](C)O)C(C)C [MBP87-106] (H-VVHFFKNIVTPRTPPPSQGK-OH; N-terminus and C-terminus assumed),Severity: number of mice with clinical score 0 (no disease),"[1]; Non-Tg mice, n = 5, Table 2",5
same,EAE developed (in words),[1]; Tg mice,only a mild EAE
same,Severity: number of mice with clinical score 0 (no disease),"[1]; Tg mice, n = 5, Table 2",2
same,Severity: number of mice with clinical score 1 (tail atony),"[1]; Tg mice, n = 5, Table 2",2
same,Severity: number of mice with clinical score 3 (hind-limb paralysis),"[1]; Tg mice, n = 5, Table 2",1
CC[C@H](C)[C@H](NC(=O)[C@H](CO)NC(=O)[C@H](CCC(N)=O)NC(=O)[C@H](CS)NC(=O)[C@@H](NC(=O)[C@@H](NC(=O)[C@H](Cc1c[nH]c2ccccc12)NC(=O)[C@@H](NC(=O)[C@H](CC(N)=O)NC(=O)[C@H](Cc1ccccc1)NC(=O)[C@H](Cc1ccc(O)cc1)NC(=O)[C@@H](NC(=O)[C@@H](N)Cc1ccc(O)cc1)[C@@H](C)CC)[C@@H](C)O)[C@@H](C)O)[C@@H](C)O)C(=O)N[C@@H](C)C(=O)N[C@@H](Cc1ccccc1)C(=O)N1CCC[C@H]1C(=O)N[C@@H](CO)C(=O)N[C@@H](CCCCN)C(=O)O [PLP175-192] (H-YIYFNTWTTCQSIAFPSK-OH),IC50,[2],187 nM
same,IC50,[3],169 nM
CSCC[C@H](NC(=O)[C@H](C)NC(=O)[C@H](CCCNC(=N)N)NC(=O)[C@@H](N)Cc1ccc(O)cc1)C(=O)N[C@@H](C)C(=O)N[C@@H](C)C(=O)N[C@@H](CC(C)C)C(=O)O [Peptide A6-m1-7] (H-YRAMAAL-OH),IC50,[2],410 nM
same,IC50,[3],530 nM
CSCC[C@H](NC(=O)[C@H](C)NC(=O)[C@H](CCCNC(=N)N)NC(=O)[C@@H](N)Cc1ccc(O)cc1)C(=O)N[C@@H](C)C(=O)N[C@@H](CO)C(=O)N[C@@H](CC(C)C)C(=O)O [Peptide S6-m1-7] (H-YRAMASL-OH),IC50,[2],43 nM
same,IC50,[3],53 nM
CSCC[C@H](NC(=O)[C@H](C)NC(=O)[C@H](CCCNC(=N)N)NC(=O)[C@@H](N)Cc1ccc(O)cc1)C(=O)N[C@@H](C)C(=O)N[C@H](C(=O)N[C@@H](CC(C)C)C(=O)O)[C@@H](C)O [m 1-7] (H-YRAMATL-OH),IC50,[2],120 nM
same,IC50,[3],130 nM
